Data on four molecules can be found in US4966962A, “Reverse analogue of actinomycin D” (Trustees of Boston University, priority 1988, dated 1990).

Data set [1] has as its system P388/S (adriamycin sensitive) leukemia. Put plainly: Antitumor activity in vivo, P388/S leukemia. Also noted: species or system mice. To be noted: P388/S, at optimal dose, ip days 1, 5, 9. Here is the method: The analogues were tested for their antitumor activities in P388 lymphocytic leukemia in male BDF1 mice.
^a Male CDF1 mic inoculated ip: 10^6 cells inoculum, day 0.
Drugs administered in 10% dimethyl sulfoxidesaline on days 1, 5, and 9. %
ILS = percent increase in life span. Fractions in parentheses = tumor fre
survivors/total on day 60^b. P388/S (adriamycin sensitive) and
P388/ADR (adriamycin resistant) tumors were evaluated in the same
experiment with agent listed.

In data set [2] the test system is P388/ADR (adriamycin resistant) leukemia. Put plainly: Antitumor activity in vivo, P388/ADR leukemia. The conditions noted are these: at optimal dose, ip days 1, 5, 9. Set-up: species or system mice. Here is the method: The analogues were also tested against P388/ADR murine leukemia following the standard protocol (Table VI).
ILS = percent increase in life span.

A short description of data set [3]: Maximum tolerated dose (LD10) in tumor-free male mice. The conditions noted are these: ip days 1, 5, 9; deaths observed during 21 days; from plot of log dose vs percent mortality. The method, then:
The analogues were also tested in tumor-free male mice for their LD10 values (Table XIV). The animals were given a broad range of doses (ip) on days 1, 5, and 9. The maximum tolerated doses of AMD and the analogues that caused death in only 10% of the tested animals in 21 days (i.e., LD10) were recorded as MTD. […] On the basis of these values, the calculated therapeutic index values of SAD is 96, and those of RAD I, II, and III are 60, 67, and 70, respectively.
control in P388 tumor bearing mice. ^c MTD (maximum tolerated dose) i
the lethal dose (milligram/kilogram) for 10% normal BDF1 male mice
days). Values were calculated from a plot of log dose vs percent

For the next data set, the system named is B16 melanoma. Put plainly: In vivo antitumor activity against B16 melanoma. Set-up: species or system BDF1 mice. The method, then: ^a 0.2 mL of 1:5 (weight/volume) brei of B16 melanoma implanted
ip on day 0 in groups of nine BDF1 mice. Drugs administered ip^b
MST (range), median survival time in days (range of days for death of
individual animal). ^c % ILS (surv), percent increase in life span
(survivors on day 65/total injected).

The test system of a further data set is P388 Leukemia. Put plainly: Minimum effective dose in P388 tumor bearing mice. Type of data set: in vivo. The text has this:
^a Drugs administered ip once on days 1, 5, and 9 starting 1 day afte
tumor implantation. Determinations were made from analysis of plotted
logdose response data. ^b MED (minimum effective dose) is the dose
(milligram/killogram) providing an increase in life span of 45% over

The subject of data set [4] is supercoiled closed-circular pBR322 DNA. Put plainly: Cleavage of closed circular pBR322 DNA. Type of data set: biochemical. To be noted: 20° C., 1 h, Na2S2O4, FeCl2. Here is the method: The cleavage of DNA was followed by monitoring of the conversion of supercoiled closed-circular pBR322 DNA to open-circular DNA (analyzed by agarose gel electrophoresis and quantitated by staining with 0.5 ug/mL of ethidium bromide for 30 min and densitometry; (Table II). SAD and RAD show strong DNA-cleaving ability in the presence of sodium hydrosulfite and ferrous chloride. Presumably, sodium hydrosulfite acts as a reducing agent and regenerates Fe(II) from Fe(III) to produce a continuous source of the active metal ion. When the DNA-cleaving reaction with the analogues was performed at 20° C., the ratio of cleaved DNA (open circular form DNA versus closed circular DNA) was almost maximum within 1 h. […] Cleavage of DNA by the analogues is aided by the actinomycin chromopeptide moiety, which acts as a site-specific binder to DNA, and is effected by the aminoquinone function which is chelated to the ferrous ion during the process, and this is the likely candidate which generates the radical species.
Plasmid DNA pBR322 (0.5 ug) was dissolved in /8 μL of a reaction buffer (5 mM […], 10 mM Tris-HCl). To this solution, 1 μL of the 10 mM aqueous solution of the agent containing 1 mM FeCl2 was added. The mixture was incubated for 0.5-2 h at 20° or 37° C. Then, the incubation mixture was mixed with 10 uL of sample loading buffer (50% glycerin in 2 X Boyer's buffer containing 0.01% bromophenol blue). Finally, 5 uL of the mixture was analyzed by 0.7% agarose gel electrophoresis (120 V, Boyer's buffer; the migration distance of bromophenol blue was 5.0 cm). The gel was stained with […] of ethidium bromide and then quantitated by densitometry.
^a Ten microliters of 200 u M pBR322 DNA nucelotides in UM 10 mM
TrisHCl (pH 7.8) and 50 mM NaCl, containing 4 mM Na2 --S2
O4 and 100 μM FeCl2, was incubated with drug concentration a
20° C. for 1 h; the reaction mixture was kept saturated with air
throughout the incubation period.
^b Percentage of DNA was calculated from the amounts of openand
closedcir- cular DNA in the incubation mixture.

In the next data set the test system is colon 38 adenocarcinoma. Put plainly: Activity against advanced colon carcinoma C38 tumor. The conditions noted are these: for % inhibn of tumor: tumors measured day 21. Type of data set: in vivo, CDF1 mice. The method, then: In view of favorable activity agianst colon 26 carcinoma, further experiments using the active analogues were carried out on the advanced colon adenocarcinomas of mouse colon 38. […] The superiority of RAD III and SAD over AMD in inhibiting colon 38 carcinoma is evident from the data of both tumor weight inhibition and increases in survival time of the treated over nontreated mice and the larger number of long-term survivors produced by these analogues.
^a CDF1 mice were injected sc with colon 38 adenocarcinoma
fragments (70 mg) and treated with drugs with iv injections on day 1, 5,
and 9 following tumor imoplantation on day 0. ^b [100 (tumor weight o
treated mice/tumor weight of untreated mice)] × 100; data pooled
from two experiments, tumors measured on day 21 after implantation ^c
(Median survival time of treated mice/median survival of untreated mice)
× 100; in parenthesis, number of over 100 day survivors/number of […]

In another data set the test system is mammary MX-1. Put plainly: Treatment of mammary MX-1 tumor. Type of data set: in vivo. To be noted: at 60 mg/kg.
A short description of data set [5]: Toxic deaths in nontumored mice treated in parallel (colon 38 experiment). Type of data set: in vivo. The text has this: × 100; in parenthesis, number of over 100 day survivors/number of
mice in a group of nontumored mice treated in parallel with the
tumorbearing mice and observed for 100 days.

A further data set has as its system lung LX-1. Put plainly: Treatment of lung LX-1 tumor. Type of data set: in vivo. The conditions noted are these: at 60 mg/kg.
The test system of data set [6] is CX-1 human colon adenocarcinoma. Put plainly: Chemotherapy of human colon CX-1 tumor heterotransplanted in nude mice. Type of data set: in vivo, human tumor in athymic mice. The conditions noted are these: for % T/C, optimal: TST 15, observed day 22. The method, then:
Tables XI and XII show the effectiveness of SAD (2) and RAD (3b and 3c) against CX-1 human colon adenocarcinoma heterotransplanted into athymic mice, with three iv treatments with drugs on a weekly schedule starting on the 15th day of tumor transplant. AMD and the analogues were tested at doses of 45 and 60 ug/kg.
^a -, % T/C high than 50%; ±, % T/C close to 50%; +, % T/C from 50
to 35%; ++, % T/C from 35% to 20%; +++, % T/C lower than 20%; ++++,
regression of the tumor to a volume lower than 10% of the volume at the
start of treatment. ^b Statistically significant as evaluated by the
^a Intravenous treatment, once a week for three weeks; eight mice per
group. ^b TST; number of days between tumor transplant and starting o
treatment. ^c Numbers in parentheses; day of observation after the […]

Where [7] appears, read: at optimal dose, ip days 1, 5, 9.

In the case of `CO[C@@]12[C@H](COC(N)=O)C3=C(C(=O)C(C)=C(N)C3=O)N1C[C@@H]1N[C@@H]12` [mitomycin C], the figures for the “tumor free survivors/total on day 60” value in data set [1] and in data set [2] were 1/8 and 5/8, respectively.

In the case of `Cc1nc2c(C(=O)N[C@@H]3C(=O)N[C@H](C(C)C)C(=O)N4CCC[C@H]4C(=O)N(C)CC(=O)N(C)[C@@H](C(C)C)C(=O)O[C@@H]3C)c3nc4c(C(=O)N[C@@H]5C(=O)N[C@H](C(C)C)C(=O)N6CCC[C@H]6C(=O)N(C)CC(=O)N(C)[C@@H](C(C)C)C(=O)O[C@@H]5C)c(N)c(=O)c(C)c-4oc3c(C)c2o1` [RAD I (3a)], in [3], the “MTD (maximum tolerated dose), lethal dose for 10% of normal mice (LD10)” value is given as 1.80 milligram/kilogram. In addition, in the data set with B16 melanoma (setting [7]), the “% ILS” value worked out at 124% and the “survivors on day 65/total injected” value was 6/9. Also, the “MST (range), median survival time” value in the data set on B16 melanoma (at optimal dose, ip days 1, 5, 9, range of days of death) was 65(55-62) days. The molecule further returned an optimal dose in the data set with B16 melanoma (ip, days 1, 5, 9) of 300 μg/kg per inj. Moreover, in the data set on P388 Leukemia (MTD in normal BDF1 mice / MED in P388 tumor bearing mice), the “therapeutic index MTD/MED” value amounted to 60. Moreover, the “MED (minimum effective dose), dose giving 45% increase in life span over control” value in the data set on P388 Leukemia (ip once on days 1, 5, and 9, from plotted log-dose response data) is recorded as 0.03 milligram/killogram.

As to bleomycin [BLM (bleomycin)], the figures for the “Percentage of closed circular pBR322 DNA cleaved” value in [4], in data set [4] (concn 50 M (so in the source)) and in data set [4] (concn 100 M (so in the source)) were 55%, 75% and 85%, respectively.

Turning to `COc1cccc2c1C(=O)c1c(O)c3c(c(O)c1C2=O)C[C@@](O)(C(=O)CO)C[C@@H]3O[C@H]1C[C@H](N)[C@H](O)[C@H](C)O1` [adriamycin], the “% T/C (median survival time)” value was 103% in the data set on colon 38 adenocarcinoma (dose 2.0 mg/kg iv days 1, 5, 9); 98% in the data set on colon 38 adenocarcinoma (dose 3.0 mg/kg iv days 1, 5, 9); 250% in the data set on colon 38 adenocarcinoma (dose 4.0 mg/kg iv days 1, 5, 9). Further, the “% inhibn of tumor” value stood at 29% with colon 38 adenocarcinoma (dose 2.0 mg/kg iv days 1, 5, 9); 70% with colon 38 adenocarcinoma (dose 3.0 mg/kg iv days 1, 5, 9); 93% with colon 38 adenocarcinoma (dose 4.0 mg/kg iv days 1, 5, 9). For the same molecule, the “over 100 day survivors/number of mice” value in the data set on colon 38 adenocarcinoma (dose 4.0 mg/kg iv days 1, 5, 9) is given as 5/9. Also, the “response of mammary MX-1 to treatment” value in the data set with mammary MX-1 is listed as “some positive response”. For the same molecule, the “tumor free survivors/total on day 60” value in data set [1] is recorded as 1/8. For the same molecule, the toxic deaths was 0/9 in [5] (dose 2.0 mg/kg iv days 1, 5, 9); 0/9 in [5] (dose 3.0 mg/kg iv days 1, 5, 9); 3/9 in data set [5] (dose 4.0 mg/kg iv days 1, 5, 9); 8/9 in data set [5] (dose 5.0 mg/kg iv days 1, 5, 9). Further, in the data set with lung LX-1, the “response of lung LX-1 to treatment” value was “some positive response”. Further, the “% T/C, optimal” value in [6] (dose 6 × 10^3 μg/kg iv once a week for three weeks) stood at 38%; in data set [6] (dose 10 × 10^3 μg/kg iv once a week for three weeks) it was 39%. Further, in [6] (three iv treatments weekly from 15th day of transplant, at the doses tested), the “response of CX-1 tumor to treatment (in words)” value is reported as “ineffective”.
